ChEMBL document CHEMBL2346526, “Synthesis and antiproliferative activity of C-homo-lactam derivatives of 7-deoxycholic acid” (Bioorg Med Chem Lett, 2013)
pIC50: −log10 of the molar value.

Legend:
Format in all cases: functional, cell-based
[1] = Cytotoxicity against human MGC7901 cells after 72 hrs by MTT assay
[2] = system: HeLa; assay: Cytotoxicity against human HeLa cells after 72 hrs by MTT assay; conditions: for pIC50: Homo sapiens, HeLa, 72 h, read-out: IC50; for IC50: hela
[3] = Cytotoxicity against human SPC-A cells after 72 hrs by MTT assay
[4] = Cytotoxicity against human Tu 686 cells after 72 hrs by MTT assay
[5] = Cytotoxicity against GNE 2 cells (unknown origin) after 72 hrs by MTT assay
[6] = Cytotoxicity against human SMMC-7404 cells after 72 hrs by MTT assay

Row | SMILES | IC50 [1] | pIC50 [2] | IC50 [3] | IC50 [4] | IC50 [5] | IC50 [6] | IC50 [2]
1 | COC(=O)CC[C@@H](C)[C@H]1CC[C@H]2[C@@H]3CC[C@@H]4C[C@@H](OC(C)=O)CC[C@]4(C)[C@H]3CC(=O)N[C@]12C | 80.7 µM | 4.80 | > 200 µM | 65.9 µM | > 200 µM | 62.3 µM | 
2 | C[C@H](CCC(=O)O)[C@H]1CC[C@H]2[C@@H]3CC[C@@H]4CC(=O)CC[C@]4(C)[C@H]3CC(=O)N[C@]12C | > 200 µM |  | > 200 µM | 16.7 µM | > 200 µM | > 200 µM | > 200 µM
3 | COC(=O)CC[C@@H](C)[C@H]1CC[C@H]2[C@@H]3CC[C@@H]4C[C@@H](OC(C)=O)CC[C@]4(C)[C@H]3C/C(=N\O)[C@]12C | 19.8 µM | 4.83 | 13.5 µM | 74.3 µM | 17.3 µM | 15.6 µM | 
4 | COC(=O)CC[C@@H](C)[C@H]1CC[C@H]2[C@@H]3CC[C@@H]4C[C@@H](O)CC[C@]4(C)[C@H]3CC(=O)N[C@]12C | > 200 µM | 4.72 | > 200 µM | > 200 µM | 168 µM | > 200 µM | 
5 | CC(=O)O[C@H]1CC[C@@]2(C)[C@H](CC[C@@H]3[C@@H]2CC(=O)N[C@]2(C)[C@@H]([C@H](C)CCC(=O)N(C)C)CC[C@@H]32)C1 | 88.5 µM |  | 130 µM | 74.5 µM | 151 µM | 168 µM | > 200 µM
6 | CC(=O)O[C@H]1CC[C@@]2(C)[C@H](CC[C@@H]3[C@@H]2CC(=O)N[C@]2(C)[C@@H]([C@H](C)CCC(=O)O)CC[C@@H]32)C1 | 185 µM |  | 185 µM | 19.8 µM | 134 µM | 99.3 µM | > 200 µM
7 | C[C@H](CCC(=O)O)[C@H]1CC[C@H]2[C@@H]3CC[C@@H]4C[C@@H](O)CC[C@]4(C)[C@H]3CC(=O)N[C@]12C | > 200 µM | 4.72 | > 200 µM | 44.3 µM | 168 µM | > 200 µM | 
